Reference: patent publication US8299048B2, “Hexahydrocyclopentyl[f]indazole sulfonamides and derivatives thereof as selective glucocorticoid receptor modulators” (Merck Sharp & Dohme Corp., priority 2008, dated 2012)

The compounds below were run against T1, glucocorticoid receptor (Homo sapiens, UniProt P04150) (assay: Ligand binding assay (GR BIND)).
T1 construct: endogenous in cells
T1 sequence (P04150 1-777): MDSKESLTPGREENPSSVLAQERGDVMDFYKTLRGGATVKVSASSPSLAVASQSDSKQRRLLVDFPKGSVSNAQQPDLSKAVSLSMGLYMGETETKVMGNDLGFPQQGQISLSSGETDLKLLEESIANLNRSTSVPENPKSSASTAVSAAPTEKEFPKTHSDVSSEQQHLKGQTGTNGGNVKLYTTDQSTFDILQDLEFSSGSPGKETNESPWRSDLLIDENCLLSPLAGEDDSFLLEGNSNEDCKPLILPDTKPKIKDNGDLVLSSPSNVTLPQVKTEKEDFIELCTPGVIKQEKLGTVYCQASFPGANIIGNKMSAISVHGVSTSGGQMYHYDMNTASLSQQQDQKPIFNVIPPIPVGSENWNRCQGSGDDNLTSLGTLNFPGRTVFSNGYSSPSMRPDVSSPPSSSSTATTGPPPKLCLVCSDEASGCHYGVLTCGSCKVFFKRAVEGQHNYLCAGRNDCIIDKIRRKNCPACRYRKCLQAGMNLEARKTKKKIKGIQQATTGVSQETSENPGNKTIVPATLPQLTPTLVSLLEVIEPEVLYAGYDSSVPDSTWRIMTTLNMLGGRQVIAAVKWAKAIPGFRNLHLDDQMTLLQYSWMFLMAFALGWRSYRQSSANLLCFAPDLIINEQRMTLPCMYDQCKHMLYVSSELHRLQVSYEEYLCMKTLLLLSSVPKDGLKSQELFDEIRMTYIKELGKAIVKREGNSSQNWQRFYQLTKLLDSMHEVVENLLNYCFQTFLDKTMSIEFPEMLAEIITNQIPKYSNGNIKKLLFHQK
In short: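 Displacement of tritiated dexamethasone (6 nM trace solution) from receptor in cell supernatant was measured after overnight incubation at 4 °C in molybdate-containing TEGM, pH 7.2, 2% ethanol. Hydroxylapatite pulled down the receptor–ligand complex for filter washing and scintillation counting, with dexamethasone as reference.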

Structure (SMILES)	Ki [nM]
Cn1cnc(S(=O)(=O)N(CC#N)C[C@H]2CCC3=Cc4c(cnn4-c4ccc(F)cc4)C[C@@]32C)c1 [Example 37, N-(cyanomethyl)-N-{[(4αR,5S)-1-(4-fluorophenyl}-4α-methyl-1,4,4α,5,6,7-hexahydrocyclopenta[f]indazol-5-yl]methyl}-1-methyl-1H-imidazole-4-sulfonamide]	10.7
C[C@]12Cc3cnn(-c4ccc(F)cc4)c3C=C1CC[C@@H]2CN(CC#N)S(=O)(=O)c1ccc(Oc2cccc(Cl)c2C#N)cc1 [Example 38, 4-(3-chloro-2-cyanophenoxy)-N-(cyanomethyl)-N-{[(4αR,5S)-1-(4-fluorophenyl)-4α-methyl-1,4,4α,5,6,7-hexahydrocyclopenta[f]indazol-5-yl]methyl}benzenesulfonamide]	6.4
CN1CCOc2cc(S(=O)(=O)N(CC#N)C[C@H]3CCC4=Cc5c(cnn5-c5ccc(F)cc5)C[C@@]43C)ccc21 [Example 39, N-(cyanomethyl)-N-{[(4αR,5S)-1-(4-fluorophenyl)-4α-methyl-1,4,4α,5,6,7-hexahydrocyclopenta[f]indazol-5-yl]methyl}-4-methyl-3,4-dihydro-2H-1,4-benzoxazine-7-sulfonamide]	8.1
C[C@]12Cc3cnn(-c4ccc(F)cc4)c3C=C1CC[C@@H]2CN(CC#N)S(=O)(=O)c1cccc2ccccc12 [Example 40, N-(cyanomethyl)-N-{[(4αR,5S)-1-(4-fluorophenyl)-4α-methyl-1,4,4α,5,6,7-hexahydrocyclopenta[f]indazol-5-yl]methyl}naphthalene-1-sulfonamide]	10.5
C[C@]12Cc3cnn(-c4ccc(F)cc4)c3C=C1CC[C@@H]2CN(CC#N)S(=O)(=O)c1cc(OCC(F)(F)F)ccc1OCC(F)(F)F [Example 41, N-(cyanomethyl)-N-{[(4αR,5S)-1-(4-fluorophenyl)-4α-methyl-1,4,4α,5,6,7-hexahydrocyclopenta[f]indazol-5-yl]methyl}-2,5-bis(2,2,2-trifluoroethoxy)benzenesulfonamide]	5.9
C[C@]12Cc3cnn(-c4ccc(F)cc4)c3C=C1CC[C@@H]2CN(CC#N)S(=O)(=O)c1ccc(-c2ccccc2)cc1 [Example 42, N-(cyanomethyl)-N-{[(4αR,5S)-1-(4-fluorophenyl)-4α-methyl-1,4,4α,5,6,7-hexahydrocyclopenta[f]indazol-5-yl]methyl}biphenyl-4-sulfonamide]	5.9
C[C@]12Cc3cnn(-c4ccc(F)cc4)c3C=C1CC[C@@H]2CN(CC#N)S(=O)(=O)c1ccccc1F [Example 43, N-(cyanomethyl)-2-fluoro-N-{[(4αR,5S)-1-(4-fluorophenyl)-4α-methyl-1,4,4α,5,6,7-hexahydrocyclopenta[f]indazol-5-yl]methyl}benzenesulfonamide]	2.2
C[C@]12Cc3cnn(-c4ccc(F)cc4)c3C=C1CC[C@@H]2CN(CC#N)S(=O)(=O)c1cc(F)cc(F)c1 [Example 44, N-(cyanomethyl)-3,5-difluoro-N-{[(4αR,5S)-1-(4-fluorophenyl)-4α-methyl-1,4,4α,5,6,7-hexahydrocyclopenta[f]indazol-5-yl]methyl}benzenesulfonamide]	1.6
C[C@]12Cc3cnn(-c4ccc(F)cc4)c3C=C1CC[C@@H]2CN(CC#N)S(=O)(=O)c1ccc(Oc2ccccn2)cc1 [Example 45, N-(cyanomethyl)-N-{[(4αR,5S)-1-(4-fluorophenyl)-4α-methyl-1,4,4α,5,6,7-hexahydrocyclopenta[f]indazol-5-yl]methyl}-4-(pyridin-2-yloxy)benzenesulfonamide]	2.4
C[C@]12Cc3cnn(-c4ccc(F)cc4)c3C=C1CC[C@@H]2CN(CC#N)S(=O)(=O)c1ccc(F)cc1 [Example 46, N-(cyanomethyl)-4-fluoro-N-{[(4αR,5S)-1-(4-fluorophenyl)-4α-methyl-1,4,4α,5,6,7-hexahydrocyclopenta[f]indazol-5-yl]methyl}benzenesulfonamide]	0.7
C[C@]12Cc3cnn(-c4ccc(F)cc4)c3C=C1CC[C@@H]2CN(CC#N)S(=O)(=O)c1cc(F)c(F)cc1F [Example 47, N-(cyanomethyl)-2,4,5-trifluoro-N-{[(4αR,5S)-1-(4-fluorophenyl)-4α-methyl-1,4,4α,5,6,7-hexahydrocyclopenta[f]indazol-5-yl]methyl}benzenesulfonamide]	0.7
C[C@]12Cc3cnn(-c4ccc(F)cc4)c3C=C1CC[C@@H]2CN(CC#N)S(=O)(=O)Cc1ccccc1 [Example 48, N-(cyanomethyl)-N-{[(4αR,5S)-1-(4-fluorophenyl)-4α-methyl-1,4,4α,5,6,7-hexahydrocyclopenta[f]indazol-5-yl]methyl}-1-phenylmethanesulfonamide]	0.9
Cc1ccccc1S(=O)(=O)N(CC#N)C[C@H]1CCC2=Cc3c(cnn3-c3ccc(F)cc3)C[C@@]21C [Example 49, N-(cyanomethyl)-N-{[(4αR,5S)-1-(4-fluorophenyl)-4α-methyl-1,4,4α,5,6,7-hexahydrocyclopenta[f]indazol-5-yl]methyl}-2-methylbenzenesulfonamide]	1.8
C[C@]12Cc3cnn(-c4ccc(F)cc4)c3C=C1CC[C@@H]2CN(CC#N)S(=O)(=O)c1ccccc1Cl [Example 50, 2-chloro-N-(cyanomethyl)-N-{[(4αR,5S)-1-(4-fluorophenyl)-4α-methyl-1,4,4α,5,6,7-hexahydrocyclopenta[f]indazol-5-yl]methyl}benzenesulfonamide]	6.5
C[C@]12Cc3cnn(-c4ccc(F)cc4)c3C=C1CC[C@@H]2CN(CC#N)S(=O)(=O)c1ccc(F)cc1F [Example 51, N-(cyanomethyl)-2,4-difluoro-N-{[(4αR,5S)-1-(4-fluorophenyl)-4α-methyl-1,4,4α,5,6,7-hexahydrocyclopenta[f]indazol-5-yl]methyl}benzenesulfonamide]	2.5
Cc1nn(C)c(Cl)c1S(=O)(=O)N(CC#N)C[C@H]1CCC2=Cc3c(cnn3-c3ccc(F)cc3)C[C@@]21C [Example 52, 5-chloro-N-(cyanomethyl)-N-{[(4αR,5S)-1-(4-fluorophenyl)-4α-methyl-1,4,4α,5,6,7-hexahydrocyclopenta[f]indazol-5-yl]methyl}-1,3-dimethyl-1H-pyrazole-4-sulfonamide]	1.9
C[C@]12Cc3cnn(-c4ccc(F)cc4)c3C=C1CC[C@@H]2CN(CC#N)S(=O)(=O)c1ccccc1-c1ccccc1 [Example 53, N-(cyanomethyl)-N-{[(4αR,5S)-1-(4-fluorophenyl)-4α-methyl-1,4,4α,5,6,7-hexahydrocyclopenta[f]indazol-5-yl]methyl}biphenyl-2-sulfonamide]	3.7
C[C@]12Cc3cnn(-c4ccc(F)cc4)c3C=C1CC[C@@H]2CN(CC#N)S(=O)(=O)c1ccccc1C(F)(F)F [Example 54, N-(cyanomethyl)-N-{[(4αR,5S)-1-(4-fluorophenyl)-4α-methyl-1,4,4α,5,6,7-hexahydrocyclopenta[f]indazol-5-yl]methyl}-2-(trifluoromethyl)benzenesulfonamide]	8.5
C[C@]12Cc3cnn(-c4ccc(F)cc4)c3C=C1CC[C@@H]2CN(CC#N)S(=O)(=O)c1ccccc1C#N [Example 55]	2.7
Cc1oncc1S(=O)(=O)N(CCO)C[C@H]1CCC2=Cc3c(cnn3-c3ccc(F)cc3)C[C@@]21C [Example 56, N-{[(4αR,5S)-1-(4-fluorophenyl)-4α-methyl-1,4,4α,5,6,7-hexahydrocyclopenta[f]indazol-5-yl]methyl}-N-(2-hydroxyethyl)-5-methylisoxazole-4-sulfonamide]	4.6
C[C@]12Cc3cnn(-c4ccc(F)cc4)c3C=C1CC[C@@H]2CN(CCO)S(=O)(=O)c1cc(Cl)c(Cl)s1 [Example 58, 4,5-dichloro-N-{[(4αR,5S)-1-(4-fluorophenyl)-4α-methyl-1,4,4α,5,6,7-hexahydrocyclopenta[f]indazol-5-yl]methyl}-N-(2-hydroxyethyl)thiophene-2-sulfonamide]	2.3
C[C@]12Cc3cnn(-c4ccc(F)cc4)c3C=C1CC[C@@H]2CN(CCO)S(=O)(=O)c1ccc(F)c(F)c1 [Example 59]	2.6
C[C@]12Cc3cnn(-c4ccc(F)cc4)c3C=C1CC[C@@H]2CN(CCO)S(=O)(=O)c1ccc(C#N)cc1Cl [Example 60, 2-chloro-4-cyano-N-{[(4αR,5S)-1-(4-fluorophenyl)-4α-methyl-1,4,4α,5,6,7-hexahydrocyclopenta[f]indazol-5-yl]methyl}-N-(2-hydroxyethyl)benezenesulfonamide]	4.4
C[C@]12Cc3cnn(-c4ccc(F)cc4)c3C=C1CC[C@@H]2CN(CCO)S(=O)(=O)c1cccc(Cl)c1Cl [Example 61, 2,3-dichloro-N-{[(4αR,5S)-1-(4-fluorophenyl)-4α-methyl-1,4,4α,5,6,7-hexahydrocyclopenta[f]indazol-5-yl]methyl}-N-(2-hydroxyethyl)benezenesulfonamide]	2.5
